Laboratory results: article PMC3179267 (Biochemistry, 2011)
Where a SMILES comes first, the peptide text is derived from it. Bridges are numbered along the chain shown (N, C = ends).

Key:
trypsin [1] = assay: Protease susceptibility assay; assay type: in vitro ADME; conditions: 80 μM peptide, pH 8.2, room temperature, up to 60 min, analytical HPLC
trypsin [2] = conditions: cited from earlier work

SMILES: CC[C@H](C)[C@@H]1NC(=O)[C@H](CCC(=O)O)NC(=O)[C@@H]2CSSC[C@@H]3NC(=O)[C@H](Cc4ccc(O)cc4)NC(=O)[C@@H](NC(=O)[C@@H](NC(=O)[C@H](C)N)[C@@H](C)O)CSSC[C@@H](C(=O)N[C@@H](CCCNC(=N)N)C(=O)O)NC(=O)[C@H](CSSC[C@H](NC(=O)[C@H](CCCNC(=N)N)NC(=O)CNC(=O)[C@H]([C@@H](C)O)NC(=O)[C@H](CCCNC(=N)N)NC3=O)C(=O)N[C@@H](C)C(=O)N[C@@H]([C@@H](C)O)C(=O)N[C@@H](CCCNC(=N)N)C(=O)N[C@@H](CCC(=O)O)C(=O)N[C@@H](CO)C(=O)N[C@@H](CC(C)C)C(=O)N[C@@H](CO)C(=O)NCC(=O)N[C@@H](C(C)C)C(=O)N2)NC(=O)[C@H](CC(C)C)NC(=O)[C@H](CCCNC(=N)N)NC(=O)[C@H](Cc2ccc(O)cc2)NC(=O)[C@H](CC(C)C)NC(=O)[C@H](CCCNC(=N)N)NC(=O)CNC(=O)[C@H](CO)NC1=O [HD5ox] (H-ATCYCRTGRCATRESLSGVCEISGRLYRLCCR-OH; disulfide 3-31, 5-20, 10-30)
- susceptibility to trypsin (trypsin [1]): not accepted as a substrate
- susceptibility to trypsin, literature (trypsin [2]): very poor substrate

SMILES: CC[C@H](C)[C@H](NC(=O)[C@H](CCC(=O)O)NC(=O)[C@H](CS)NC(=O)[C@@H](NC(=O)CNC(=O)[C@H](CO)NC(=O)[C@H](CC(C)C)NC(=O)[C@H](CO)NC(=O)[C@H](CCC(=O)O)NC(=O)[C@H](CCCNC(=N)N)NC(=O)[C@@H](NC(=O)[C@H](C)NC(=O)[C@H](CS)NC(=O)[C@H](CCCNC(=N)N)NC(=O)CNC(=O)[C@@H](NC(=O)[C@H](CCCNC(=N)N)NC(=O)[C@H](CS)NC(=O)[C@H](Cc1ccc(O)cc1)NC(=O)[C@H](CS)NC(=O)[C@@H](NC(=O)[C@H](C)N)[C@@H](C)O)[C@@H](C)O)[C@@H](C)O)C(C)C)C(=O)N[C@@H](CO)C(=O)NCC(=O)N[C@@H](CCCNC(=N)N)C(=O)N[C@@H](CC(C)C)C(=O)N[C@@H](Cc1ccc(O)cc1)C(=O)N[C@@H](CCCNC(=N)N)C(=O)N[C@@H](CC(C)C)C(=O)N[C@@H](CS)C(=O)N[C@@H](CS)C(=O)N[C@@H](CCCNC(=N)N)C(=O)O [HD5red] (H-ATCYCRTGRCATRESLSGVCEISGRLYRLCCR-OH)
- susceptibility to trypsin (trypsin [1]): rapid proteolytic cleavage
